Experimental data published in PubChem BioAssay (NCI).
“And” between values parts separate entries of the source, which are not always exact repeats. Equal values may be shown once.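 In this assay, cells in 96-well plates receive the compound at five concentrations for 48 hours. Endpoints are linearly interpolated between the surrounding concentrations. Abbreviation: GI50, concentration required for 50% inhibition of growth. TGI is the concentration that stops growth completely.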

Columns and labels:
Assay in all cases: NCI tumour cell line growth inhibition, 48 h
UACC-257 melanoma = test system: UACC-257 melanoma
OVCAR-3 ovarian = test system: OVCAR-3 ovarian
HOP-92 NSCLC = test system: HOP-92 NSCLC
SK-OV-3 ovarian = test system: SK-OV-3 ovarian
UO-31 renal = test system: UO-31 renal
CAKI-1 renal = test system: CAKI-1 renal
K-562 leukemia = test system: K-562 leukemia
ACHN renal = test system: ACHN renal
MALME-3M melanoma = test system: MALME-3M melanoma
NCI-H522 lung = test system: NCI-H522 lung

SMILES | TGI (UACC-257 melanoma) | TGI (OVCAR-3 ovarian) | TGI (HOP-92 NSCLC) | TGI (SK-OV-3 ovarian) | TGI (UO-31 renal) | TGI (CAKI-1 renal) | TGI (K-562 leukemia) [µM] | TGI (ACHN renal) | TGI (MALME-3M melanoma) [µM] | TGI (NCI-H522 lung) | GI50 (UACC-257 melanoma) | GI50 (OVCAR-3 ovarian) | GI50 (HOP-92 NSCLC) | GI50 (SK-OV-3 ovarian) | GI50 (UO-31 renal) | GI50 (CAKI-1 renal) | GI50 (K-562 leukemia) | GI50 (ACHN renal) [µM] | GI50 (MALME-3M melanoma) [µM] | GI50 (NCI-H522 lung)
CCNC(C)(C)C(SS)c1ccc(Br)cc1 (centres undefined) | 90.8 µM | > 100 µM | > 100 µM | > 100 µM | > 100 µM | > 100 µM | > 100 | > 100 µM | > 100 | 35.1 µM | – | – | – | – | – | – | – | – | – | –
Cc1c(C)c2c(c(C)c1NC(=O)/C=C\C(=O)O)CCC(C)(CCCC(C)CCCC(C)CCCC(C)C)O2 (centres undefined) | 3.83 µM | 2.97 µM | 2.35 µM | 3.25 µM | 2.55 µM | 3.12 µM | 7.16 | 3.07 µM | 3.16 | 4.94 µM | 1.72 µM | 1.61 µM | 1.1 µM | 1.73 µM | 1.27 µM | 1.49 µM | 2.3 µM | 1.7 | 1.7 | 2.23 µM
COc1c(C2=NC(C(C)C)CO2)ccc2ccccc12 (centres undefined) | > 100 µM | > 100 µM | > 100 µM | > 100 µM | > 100 µM | > 100 µM | > 100 | > 100 µM | > 100 | 99.8 µM | – | – | – | – | – | – | – | – | – | –
NC(C/[N+]([O-])=N/O)C(=O)O (centres undefined) | > 100 µM and 456 µM | > 100 µM and 342 µM | > 100 µM and 209 µM | > 100 µM and 300 µM | > 100 µM and 235 µM | > 100 µM and 102 µM | > 419 | > 500 µM | > 487 | > 59.6 µM and 284 µM | 18 µM and 68.2 µM and 52.5 µM | 20.1 µM and 44.5 µM and 13 µM | > 91.7 µM and 71.4 µM and 33.4 µM | 58 µM and > 100 µM and 55.7 µM | 5.55 µM and 2.44 µM and 2.13 µM | 16.6 µM and 32.2 µM and 4.52 µM | 29.5 µM and 11.2 µM and 15 µM | 2.98 | 62.1 | 8.03 µM and 33.6 µM
O=C(C/C(=N\NC(=O)C[n+]1ccccc1)C(=O)Nc1nc2ccc([N+](=O)[O-])cc2s1)CC(c1ccccc1)c1c(O)c2ccccc2oc1=O (centres undefined) | > 100 µM | > 100 µM | > 100 µM | > 100 µM | > 100 µM | > 100 µM | > 100 | > 100 µM | > 100 | > 100 µM | – | – | – | – | – | – | – | – | – | –
CCCN(CCCN)/[N+]([O-])=N\O | > 100 µM | > 100 µM | > 100 µM | > 100 µM | > 100 µM | > 100 µM | > 100 | > 100 µM | > 100 | > 100 µM | – | – | – | – | – | – | – | – | – | –
N=Nc1c(OC(=O)Nc2ccccc2)[nH]c2ccccc12 | 92.2 µM | 26.7 µM | 55.6 µM | 36.8 µM | 25.6 µM | 32.8 µM | > 100 | 36.6 µM | 29.2 | 36.6 µM | – | – | – | – | – | – | – | – | – | –
O=S1CSCS1 (centres undefined) | > 100 µM | > 100 µM | > 100 µM | > 100 µM | > 100 µM | > 100 µM | > 100 | > 100 µM | > 100 | > 100 µM | – | – | – | – | – | – | – | – | – | –
COc1cc(=O)oc(/C=C/C=O)c1C | 35.4 µM | 33.4 µM | 53.4 µM | 75.9 µM | 39.4 µM | 79.9 µM | > 100 | 39.6 µM | 39.4 | 35.3 µM | – | – | – | – | – | – | – | – | – | –
Cc1ccc(NC(=O)CC/C(CC(=O)C(C)(C)C)=N/NC(=O)C(N)=O)cc1C | > 100 µM | > 100 µM | > 100 µM | > 100 µM | > 100 µM | > 100 µM | > 100 | > 100 µM | > 100 | > 100 µM | – | – | – | – | – | – | – | – | – | –
COC1C(O)C(C)OC(OC2C(Oc3cccc4c(O)c5c(=O)oc6ccc(C)c7c(=O)oc(c34)c5c67)OC(C)C3O[C@H](c4ccccc4)OC32)C1O (some centres undefined) | 3.86 µM | 5.31 µM | 7.21 µM | 7.94 µM | 2.43 µM | 0.616 µM and 5.28 µM | 23.2 | – | 3.72 | 6.78 µM | 0.798 µM and 0.372 µM | – | 0.0823 µM | – | – | 0.134 µM | 0.309 µM and 0.0798 µM | 0.0276 | – | 0.284 µM and 0.262 µM
CC1(C)CCC[C@@]2(C)C1C[C@H](O)[C@@]1(C)O[C@@](C)([C@H](O)CO)CCC21 (some centres undefined) | > 100 µM | > 100 µM | 70.7 µM | 79.4 µM | 85.3 µM | > 100 µM | > 100 | 74.9 µM | > 100 | 89.8 µM | – | – | – | – | – | – | – | – | – | –
CC(=O)Nc1ccc(-c2c3nc(c(-c4cc5ccccc5[n+](C)c4)c4ccc([nH]4)c(-c4ccc(NC(C)=O)cc4)c4nc(c(-c5cc6ccccc6[n+](C)c5)c5ccc2[nH]5)C=C4)C=C3)cc1 | 47.6 µM | 12.9 µM | > 50 µM | 35.6 µM | 33.6 µM | 29.7 µM | > 50 | 26.6 µM | > 50 | > 50 µM | 11.7 µM | 2.37 µM | 23.9 µM | 11.1 µM | 10.6 µM | 4.81 µM | 20.1 µM | 10.3 | 16.9 | 14.6 µM
Cc1cc(=O)n(-c2ccccc2)c(=O)o1 | > 100 µM | > 100 µM | > 100 µM | > 100 µM | > 100 µM | > 100 µM | > 100 | > 100 µM | > 100 | > 100 µM | – | – | – | – | – | – | – | – | – | –
O=C1c2ccccc2NC(c2cc(Cl)cc(Cl)c2O)N1CCc1ccccn1 (centres undefined) | > 100 µM | > 100 µM | > 100 µM | > 100 µM | > 100 µM | > 100 µM | > 100 | > 100 µM | > 100 | > 100 µM | – | – | – | – | – | – | – | – | – | –
O=C(CCN1CCOCC1)Nc1ccc(F)cc1F | > 100 µM | > 100 µM | > 100 µM | > 100 µM | > 100 µM | > 100 µM | > 100 | > 100 µM | > 100 | > 100 µM | – | – | – | – | – | – | – | – | – | –
COC(=O)CCC(C)[C@H]1CCC2C3C(C[C@H](OC(C)=O)[C@@]21C)[C@@]1(C)CCC2(C[C@H]1C[C@H]3OC(C)=O)OOC1(CCC(C)CC1)OO2 (some centres undefined) | > 100 µM | > 100 µM and 72 µM | 7.63 µM and 69.9 µM | > 100 µM | 17.8 µM and 36.4 µM | > 100 µM | > 100 | 61.7 µM and > 100 µM | > 100 | > 100 µM | 8.83 µM and 25.2 µM | – | – | – | 4.13 µM and 11.2 µM | 5.26 µM and 15.8 µM | 3.78 µM and 26.8 µM | – | – | 6.16 µM and 14.6 µM
COC(=O)[C@H]1[C@H]2C[C@@H]3c4[nH]c5cc(OC)ccc5c4CCN3C[C@H]2C[C@@H](OC(=O)c2cc(OC)c(OC)c(OC)c2)[C@@H]1OC | 42.1 µM | 32.9 µM | 39.9 µM | – | 43.5 µM | 36 µM | 29.3 | > 100 µM | 34.2 | 34 µM | – | – | – | – | – | – | – | – | – | –
